Source: article PMC6817880, “Biochemical and Structural Insights Concerning Triclosan Resistance in a Novel YX7K Type Enoyl-Acyl Carrier Protein Reductase from Soil Metagenome” (Scientific Reports, 2019)

Tested on: T1, FabI2 ENR (metagenomic YX7K type enoyl-acyl carrier protein reductase)
T1 construct: fabI2 gene in pET-30b(+) (BamHI/SalI), vector pAF1-5; His-tag fusion protein from E. coli BL21(DE3), tag cleavage not mentioned
Assay: spectrophotometric NADH oxidation at […] nm, Michaelis-Menten fit
Type: biochemical, uncultured bacterium
Conditions: 100 nM enzyme, 100 mM sodium phosphate pH 7.0, 25 °C

Row | Compound | Km (200 µM NADH) [µM] | Km (60 µM crotonyl-CoA) [µM]
1 | C/C=C/C(=O)SCCNC(=O)CCNC(=O)[C@H](O)C(C)(C)COP(=O)(O)OP(=O)(O)OC[C@H]1O[C@@H](n2cnc3c(N)ncnc32)[C@H](O)[C@@H]1OP(=O)(O)O [crotonyl-CoA] | 13.8 | 
2 | NC(=O)C1=CN([C@@H]2O[C@H](COP(=O)(O)OP(=O)(O)OC[C@H]3O[C@@H](n4cnc5c(N)ncnc54)[C@H](O)[C@@H]3O)[C@@H](O)[C@H]2O)C=CC1 [NADH] |  | 18.2
